Key:
HCC1395 cells = test: MTT cytotoxicity assay, HCC1395 cells, 72 h; assay type: cell-based, human; conditions: MTT test, 72 h exposure
Experimental: (§1) The cytotoxic activity of the samples was screened against the human triple-negative breast cancer BT-20 (HTB-19), HCC1395 (ATCC®CRL-2324), MDA-MB-231 (CRM-HTB-26), and HEK293 (CRL-1573) embryonic kidney cell lines. The cells were cultured in Dulbecco’s modified eagle medium (DMEM) supplemented with 4.5 g/L glutamine and D-glucose, 10% fetal bovine serum (FBS), and a 1% penicillin/streptomycin mixture and incubated at 37 °C under a 5% CO2 humidified atmosphere. Cell passage and seeding performed after washing the adherent cells with PBS and detaching them using a Trypsin solution. The cells were detached and resuspended at 160,000 cells/mL and added into each well of a transparent 384-well plate in the final volume of 25 µL/well (4000 cells per well). The cells were maintained in DMEM containing 10% FBS at 37°C and 5% CO2 overnight. The next day, the 384-well plate was examined under an inverted microscope to identify cell seeding errors, growth characteristics, morphology and equal distribution. Then, the medium in each well was removed using a washer–dispenser (Biotek FX, Beersel, Belgium) and replaced by 40 μL of the fresh medium containing the indicated concentrations of compounds and incubated for 72 h.
(§2) The 250 µg/mL concentrations of methanol extract and 20 mM concentrations of individual compounds were prepared as a stock solution in DMSO (Sigma-Aldrich Chemie GmbH, Taufkirchen, Germany) prior to use. A complete medium was used to prepare this solution. The samples were further serially diluted in DMSO into eleven different concentrations and then added to the complete cell culture medium so as to attain the final concentrations ranging from 250 to 8.6 µg/mL (250, 178.6, 127.6, 91.1, 65.1, 46.5, 33.2, 23.7, 16.9, 12.1, and 8.6 µg/mL) for the extract and 20 to 1.45 µM (20, 15.4, 11.8, 9.1, 7.0, 5.4, 4.1, 3.2, 2.5, 1.9, and 1.5 µM) for the individual compounds in 384-well plates, which were added in four replicates. A 40 µL sample containing medium from each concentration was dispensed into each well. The concentration of the solvent, DMSO, was equal in all the wells and was fixed at 0.05% in the medium. As a negative control, cells were treated with DMEM containing DMSO. Docetaxel (concentration of 0.02 µM to 6.9 nM) is used as a positive control.
(§3) The cytotoxicity of the samples was determined in triplicate using the 3-(4,5-dimethylthiazol-2-yl)-2,5-diphenyltetrazolium bromide (MTT) cell viability assay. The next day, the medium of the 384-well plates treated with samples was removed. Then, 25 µL of MTT solution (0.5 mg MTT in 1 mL PBS) was added to each well and incubated at 37 °C for 2 h. After incubation with MTT for 2 h, the solution was removed from the wells by the washer–dispenser, and the formed formazan crystals were then dissolved in 25 µL of DMSO. After a further 10 min of incubation at room temperature, the samples were mixed briefly, and the absorbance was detected at 510 nm with a Tecan Infinite 200 Pro Reader (Tecan Group Ltd., Männedorf, Switzerland). The cell viability rate (%) was calculated by the following formula:Cell viability rate (%) = ((OD of treated cells − OD of media (blank)/(OD of control cells − OD of media (blank)) × 100%
(§4) The experiments were carried out in four replicates. Continuous variables were presented as the mean ± SD. […] The level of significance was set at p < 0.05. The IC50 (inhibitory concentration which caused 50% inhibition) was estimated using the linear regression method of plots of the percent of cell viability against the concentration of the tested compounds using GraphPad Prism 8.0.1 software (San Diego, CA, USA).

HEK293 cells = test: MTT cytotoxicity assay, HEK293 embryonic kidney cells, 72 h; assay type: cell-based, human; conditions: MTT test, 72 h exposure
BT-20 cells = test: MTT cytotoxicity assay, BT-20 cells, 72 h; assay type: cell-based, human; conditions: MTT test, 72 h exposure
Experimental: as §1, §2, §3, §4

MDA-MB-231 cells = test: MTT cytotoxicity assay, MDA-MB-231 cells, 72 h; assay type: cell-based, human; conditions: MTT test, 72 h exposure
Experimental: as §1, §2, §3, §4

Wnt signaling = test: TOPFlash assay (Wnt3a-stimulated BT-20 reporter cells); assay type: cell-based, human; conditions: BT-20 cells, 20 µM (extract 20 μg/mL)
Experimental: The TOPFlash assay was performed as described. TNBC BT-20 cell line stably transfected with TopFlash reporter plasmid was seeded at 450,000 cells/mL in a white opaque 384-well plate in the final volume of 25 μL. The cells were maintained and incubated at 37 °C with 5% CO2 overnight for attachment. Subsequently, they were transfected by a plasmid encoding Renilla luciferase under the CMV promoter using 12 μg/mL of DNA and 40 μL/mL XtremeGENE 9 reagent as described in the manufacturer’s protocol. The next day, the medium in each well was replaced with a 20 μL fresh medium containing Wnt3a (2.5 μg/mL) and compound dilution. Compound dilutions were prepared by serial dilution in DMSO and diluted with the amount of medium necessary to obtain their final concentrations indicated on the figures and tables and maintain a concentration of DMSO of 0.05% in all assay points. Wnt3a was added after 1 h of preincubation with compound dilution. After overnight incubation, the supernatant in each well was removed by the washer–dispenser, and the luciferase activity was measured as described. […] Next, the luciferase activity of the firefly and Renilla luciferases was detected sequentially in individual wells of a 384-well plate through the injection of corresponding measurement solutions in Tecan Infinite 200 Pro multifunctional plate reader with an injection module.

[1] = test system: MCF-7, MDA-MB-231, and MDA-MB-468 cells; set-up: method as in PMID 33192507; conditions: breast cancer cells; cited from earlier work
[2] = Homo sapiens, HCC1395, average ± SEM, N = 3
[3] = Homo sapiens, HEK293, average ± SEM, N = 3
[4] = Homo sapiens, BT-20, average ± SEM, N = 3
[5] = Homo sapiens, MDA-MB-231, average ± SEM, N = 3

With C[C@@H]1C(=O)O[C@H](C)[C@H]1C[C@@H](O)[C@](C)(O)[C@H]1CC[C@@]2(O)C3=CC(=O)[C@@H]4C[C@@H](O)[C@@H](O)C[C@]4(C)[C@H]3CC[C@]12C [Compound 76, Cyasterone] the IC50 (HCC1395 cells; [2]) was over 20 µM, the IC50 (HEK293 cells; [3]) was over 20 µM and the IC50 (BT-20 cells; [4]) was over 20 µM. The IC50 (MDA-MB-231 cells; [5]) was over 20 µM.

With O=c1cc(-c2ccc(O)cc2)oc2c([C@@H]3OC[C@H](O)[C@H](O)[C@H]3O)c(O)c([C@@H]3O[C@H](CO)[C@@H](O)[C@H](O)[C@H]3O)c(O)c12 [Compound 29, Schaftoside (apigenin 6-C-β-D -glucoside-8-C-α-L-arabinoside)] the IC50 (HCC1395 cells; [2]) was over 20 µM, the IC50 (HEK293 cells; [3]) was over 20 µM and the IC50 (BT-20 cells; [4]) was over 20 µM. For the same molecule, the IC50 (MDA-MB-231 cells; [5]) was over 20 µM.

CC(C)(O)CC[C@@H](O)[C@](C)(O)[C@H]1CC[C@@]2(O)C3=CC(=O)[C@@H]4C[C@@H](O)CC[C@]4(C)[C@H]3CC[C@]12C [Compound 58, 2-Deoxy-20-hydroxyecdysone] gave an IC50 (HCC1395 cells; [2]) of 0.21 ± 0.01 µM, an IC50 (HEK293 cells; [3]) of 0.27 ± 0.01 µM and an IC50 (BT-20 cells; [4]) of 0.12 ± 0.006 µM. For the same molecule, the IC50 (MDA-MB-231 cells; [5]) was 0.53 ± 0.14 µM and the “Inhibition of Wnt signaling” value (Wnt signaling) was “not a Wnt signaling inhibitor”.

COc1cc(/C=C/C(=O)O)ccc1O [Compound 19, Ferulic acid] showed an IC50 (HCC1395 cells; average ± SEM, N = 3) of over 20 µM, an IC50 (HEK293 cells; average ± SEM, N = 3) of over 20 µM and an IC50 (BT-20 cells; average ± SEM, N = 3) of over 20 µM. For the same molecule, the IC50 (MDA-MB-231 cells; average ± SEM, N = 3) was over 20 µM.

O=C(O)[C@]1(O)C[C@@H](O)[C@@H](O)[C@H](O)C1 [Compound 12, Quinic acid] gave an IC50 (HCC1395 cells; [2]) of over 20 µM, an IC50 (HEK293 cells; [3]) of over 20 µM and an IC50 (BT-20 cells; [4]) of over 20 µM. The IC50 (MDA-MB-231 cells; [5]) was over 20 µM.

For CC(=O)OC(C)(C)CC[C@@H](O)[C@](C)(O)[C@H]1CC[C@@]2(O)C3=CC(=O)[C@@H]4C[C@@H](O)[C@@H](O)C[C@]4(C)[C@H]3CC[C@]12C [Compound 74, Viticosterone E], the IC50 (HCC1395 cells; [2]) was over 20 µM, the IC50 (HEK293 cells; [3]) was over 20 µM and the IC50 (BT-20 cells; [4]) was over 20 µM. For the same molecule, the IC50 (MDA-MB-231 cells; [5]) was over 20 µM.

In the case of C[C@H]([C@H](O)CCC(C)(C)O)[C@H]1CC[C@@]2(O)C3=CC(=O)[C@@H]4C[C@@H](O)[C@@H](O)C[C@]4(C)[C@H]3CC[C@]12C [Compound 73, Ecdysone], the IC50 (HCC1395 cells; [2]) is reported as over 20 µM, the IC50 (HEK293 cells; [3]) is reported as over 20 µM and the IC50 (BT-20 cells; [4]) is reported as over 20 µM. The IC50 (MDA-MB-231 cells; [5]) was over 20 µM.

In the case of CC(=O)O[C@@]12CO[C@@H]1C[C@H](O)[C@@]1(C)C(=O)[C@H](O)C3=C(C)[C@@H](OC(=O)[C@H](O)[C@@H](NC(=O)OC(C)(C)C)c4ccccc4)C[C@@](O)([C@@H](OC(=O)c4ccccc4)[C@H]21)C3(C)C [Docetaxel, reference compound], the IC50 (HCC1395 cells; Homo sapiens, HCC1395, positive control) is reported as 0.0065 ± 7e-07 µM, the IC50 (HEK293 cells; Homo sapiens, HEK293, positive control) is reported as 0.00447 ± 1.3e-06 µM and the IC50 (BT-20 cells; Homo sapiens, BT-20, positive control) is reported as 0.0044 ± 8e-07 µM. For the same molecule, the IC50 (MDA-MB-231 cells; Homo sapiens, MDA-MB-231, positive control) was 0.0177 ± 2.9e-06 µM.

CC1(C)CC[C@]2(C(=O)O)CC[C@]3(C)C(=CC[C@@H]4[C@@]5(C)CC[C@H](O)C(C)(C)[C@@H]5CC[C@]43C)[C@@H]2C1 [Compound 71, Oleanolic acid] gave an IC50 (HCC1395 cells; [2]) of over 20 µM, an IC50 (HEK293 cells; [3]) of over 20 µM and an IC50 (BT-20 cells; [4]) of over 20 µM. The IC50 (MDA-MB-231 cells; [5]) was over 20 µM.

O=C(O)C=Cc1ccc(O)cc1 [Compound 21, p-Coumaric acid] gave an IC50 (HCC1395 cells; [2]) of over 20 µM, an IC50 (HEK293 cells; [3]) of over 20 µM and an IC50 (BT-20 cells; [4]) of over 20 µM. For the same molecule, the IC50 (MDA-MB-231 cells; [5]) was over 20 µM.

CC(C)(O)CC[C@@H](O)[C@](C)(O)[C@H]1CC[C@@]2(O)C3=CC(=O)[C@@H]4C[C@@H](O)[C@@H](O)C[C@]4(C)[C@H]3[C@H](O)C[C@]12C [Compound 75, Turkesterone] gave an IC50 (HCC1395 cells; [2]) of over 20 µM, an IC50 (HEK293 cells; [3]) of over 20 µM and an IC50 (BT-20 cells; [4]) of over 20 µM. For the same molecule, the IC50 (MDA-MB-231 cells; [5]) was over 20 µM.

CC(C)(O)CC[C@@H](O)[C@](C)(O)[C@H]1CC[C@@]2(O)C3=CC(=O)[C@@H]4C[C@@H](O)[C@@H](O)C[C@]4(C)[C@H]3CC[C@]12C [Compound 50, 20-Hydroxyecdysone] showed an IC50 (HCC1395 cells; [2]) of over 20 µM, an IC50 (HEK293 cells; [3]) of over 20 µM and an IC50 (BT-20 cells; [4]) of over 20 µM. The IC50 (MDA-MB-231 cells; [5]) was over 20 µM and the “Concentration range in which autophagy induction / synergistic effect with doxorubicin was observed” value [1] was 250 to 750 µM.

For O=c1cc(-c2ccc(O)cc2)oc2cc(O[C@@H]3O[C@H](CO)[C@@H](O)[C@H](O)[C@H]3O)c([C@@H]3O[C@H](CO)[C@@H](O)[C@H](O)[C@H]3O)c(O)c12 [Compound 38, Saponarin (isovitexin 7-O-β-D-glucoside)], the IC50 (HCC1395 cells; average ± SEM, N = 3) was over 20 µM, the IC50 (HEK293 cells; average ± SEM, N = 3) was over 20 µM and the IC50 (BT-20 cells; average ± SEM, N = 3) was over 20 µM. For the same molecule, the IC50 (MDA-MB-231 cells; average ± SEM, N = 3) was over 20 µM.

Molecule C[C@H]([C@H](O)CCC(C)(C)O)[C@H]1CC[C@@]2(O)C3=CC(=O)[C@@H]4C[C@@H](O)CC[C@]4(C)[C@H]3CC[C@]12C [Compound 72, 2-Deoxyecdysone] has an IC50 (HCC1395 cells; [2]) of over 20 µM, an IC50 (HEK293 cells; [3]) of over 20 µM and an IC50 (BT-20 cells; [4]) of over 20 µM. The IC50 (MDA-MB-231 cells; [5]) was over 20 µM.

With C[C@@H]1O[C@@H](OC[C@H]2O[C@@H](Oc3c(-c4ccc(O)c(O)c4)oc4cc(O)cc(O)c4c3=O)[C@H](O)[C@@H](O)[C@@H]2O)[C@H](O)[C@H](O)[C@H]1O [Compound 41, Rutin (quercetin-3-O-rutinoside)] the IC50 (HCC1395 cells; [2]) was over 20 µM, the IC50 (HEK293 cells; [3]) was over 20 µM and the IC50 (BT-20 cells; [4]) was over 20 µM. The IC50 (MDA-MB-231 cells; [5]) was over 20 µM.

Reference: paper PMC11505650, “Chemical and Biological Characterization of Metabolites from Silene viridiflora Using Mass Spectrometric and Cell-Based Assays” (Biomolecules, 2024)
